# Experimental data reported in patent US5480902A, “Thienylpyrrole fungicidal agents” (American Cyanamid Company, priority 1993, dated 1996).
# Legend:
# [1] = tested on: Fusarium oxysporum f. sp. cucumerinum; assay: In vitro fungicidal activity, growth inhibition of ground fungal mycelia (FUSOXC); assay type: cell-based; details: 25 ppm, 3-4 days at 21° C., averaged when more than one test, read-out: Growth inhibition rating, FUSOXC
# Procedure: (§1) Test compounds are dissolved or suspended in acetone and dispersed into cell well plates containing a suspension of ground fungal mycelia in a nutrient broth. Assay plates are incubated for 3-4 days at 21° C. Growth inhibition is measured visually and is rated using the following scale:
# (§2) Assay fungi include the plant pathogens, Pythium ultimum (Pythul); Rhizoctonia solani (Rhizso); Fusarium oxysporum f. sp. cucumerinum (Fusoxc); and Pseudocercosporella herpotrichoides (Psdche).
# (§3) When more than one test is run, the data are averaged.
# Rhizoctonia solani = assay: In vitro fungicidal activity, growth inhibition of ground fungal mycelia (RHIZSO); assay type: cell-based; details: 3-4 days at 21° C., averaged when more than one test, read-out: Growth inhibition rating, RHIZSO
# Procedure: as §1, §2, §3
# Venturia inaegualis = assay: In vivo fungicidal activity on host plants, Apple Scab (AS); details: 400 ppm; sprayed on host plants before inoculation
# Plasmopara viticola = assay: In vivo fungicidal activity on host plants, Grape Downy Mildew (GDM); details: 400 ppm; sprayed on host plants before inoculation
# Botrytis cinerea = assay: In vivo fungicidal activity on host plants, Pepper Botrytis (PB); details: 400 ppm; sprayed on host plants before inoculation
# Pyricularia oryzae = assay type: in vivo; details: 400 ppm; sprayed on host plants before inoculation
# Cercospora beticola = assay: In vivo fungicidal activity on host plants, Sugar Beet Cercospora (SBC); details: 400 ppm; sprayed on host plants before inoculation; also: ranges in brackets are in %
# [2] = tested on: Puccinia recondita f. sp. tritici; assay: In vivo fungicidal activity on host plants, Wheat Leaf Rust (WLR); details: 400 ppm; sprayed on host plants before inoculation
# [3] = tested on: Erysiphe graminis f. sp. tritici; assay: In vivo fungicidal activity on host plants, Wheat Powdery Mildew (WPM); details: 400 ppm; sprayed on host plants before inoculation
# [4] = tested on: Pseudocercosporella herpotrichoides; assay: In vitro fungicidal activity, growth inhibition of ground fungal mycelia (PSDCHE); assay type: cell-based; details: Oculimacula yallundae, 3-4 days at 21° C., averaged when more than one test, read-out: Growth inhibition rating, PSDCHE (converted)
# Procedure: as §1, §2, §3
# Pythium ultimum = assay: In vitro fungicidal activity, growth inhibition of ground fungal mycelia (PYTHUL); assay type: cell-based; details: Globisporangium ultimum, 3-4 days at 21° C., averaged when more than one test, read-out: Growth inhibition rating, PYTHUL (converted)
# Procedure: as §1, §2, §3
SMILES,inhibition at 25 ppm [1],inhibition at 25 ppm (Rhizoctonia solani),"Disease control rating, AS (Venturia inaegualis)","Disease control rating, GDM (Plasmopara viticola)","Disease control rating, PB (Botrytis cinerea)","Disease control rating, RB (Pyricularia oryzae)","Disease control rating, SBC (Cercospora beticola)","Disease control rating, WLR [2]","Disease control rating, WPM [3]",inhibition at 25 ppm [4],inhibition at 25 ppm (Pythium ultimum)
"N#Cc1c(Cl)[nH]c(-c2ccc(Cl)s2)c1Br [Compound 7, 4-Bromo-2-chloro-5-(5-chloro-2-thienyl)pyrrole-3-carbonitrile]",0%,60 to 89%,8 (96-99),0 (0),0 (0),0 (0),0 (0),7 (90-95),0 (0),–,–
"FC(F)(F)c1[nH]c(-c2ccc(Cl)cc2)cc1-c1csc(Br)c1 [Compound 9, 3-(5-Bromo-3-thienyl)-5-(p-chlorophenyl)-2-(trifluoromethyl)pyrrole]",0%,60 to 89%,0 (0),6 (75-89),0 (0),0 (0),0 (0),0 (0),0 (0),0%,0%
